Laboratory results published in US20230183218A1, “CONDENSED SUBSTITUTED HYDROPYRROLES AS ANTAGONISTS OF THE MUSCARINIC ACETYLCHOLINE RECEPTOR M4” (Vanderbilt University, priority 2020, published 2023).

What was measured:
Human M4 = biological target: T1, Human M4 (Homo sapiens, UniProt P08173); experiment: mAChR M4 cell-based functional assay (calcium flux, antagonist mode vs EC80 acetylcholine), human M4/Gqi5/CHO-K1 cells; details: for remaining activity at 30 µM: CHO-K1, % ACh maximum at 30 μM, human M4, read-out: Human M4 Emin (%); for IC50: decrease of response elicited by EC80 acetylcholine, human M4/Gqi5 CHO-K1 cells
T1 construct: expressed in transfected cells; host or cells: CHO-K1 (ATCC), stably co-expressing chimeric G protein Gqi5
T1 sequence (P08173 1-479): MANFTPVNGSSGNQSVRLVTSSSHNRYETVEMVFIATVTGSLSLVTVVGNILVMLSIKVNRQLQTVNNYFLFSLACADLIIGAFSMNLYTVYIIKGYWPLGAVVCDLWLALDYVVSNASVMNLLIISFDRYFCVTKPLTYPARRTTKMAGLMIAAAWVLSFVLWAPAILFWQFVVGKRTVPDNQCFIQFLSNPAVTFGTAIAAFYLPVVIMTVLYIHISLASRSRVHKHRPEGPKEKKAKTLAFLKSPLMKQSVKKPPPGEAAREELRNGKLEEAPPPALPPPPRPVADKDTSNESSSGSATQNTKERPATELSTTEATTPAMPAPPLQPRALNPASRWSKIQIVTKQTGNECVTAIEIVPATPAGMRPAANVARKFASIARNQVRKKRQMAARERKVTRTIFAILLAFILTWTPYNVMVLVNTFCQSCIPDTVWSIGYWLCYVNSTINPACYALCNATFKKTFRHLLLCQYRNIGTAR
Description: (§1) Human or rat M4 cDNA, along with the chimeric G protein Gqi5, were transfected into Chinese hamster ovary (CHO-K1) cells purchased from the American Type Culture Collection using Lipofectamine2000. M4/Gqi5/CHO cells were grown in Ham's F-12 medium containing 10% heat-inactivated fetal bovine serum (FBS), 20 mM HEPES, 500 μg/mL G418 sulfate, and 200 μg/mL Hygromycin B.
(§2) For high throughput measurement of agonist-evoked increases in intracellular calcium, CHO-K1 cells stably expressing muscarinic receptors were plated in growth medium lacking G418 and hygromycin at 15,000 cells/20 μL/well in Greiner 384-well black-walled, tissue culture (TC)-treated, clear-bottom plates (VWR). Cells were incubated overnight at 37° C. and 5% CO2. The next day, cells were washed using an ELX 405 (BioTek) with assay buffer; the final volume was then aspirated to 20 μL. Next, 20 μL of a 2.3 μM stock of Fluo-4/acetoxymethyl ester (Invitrogen, Carlsbad, Calif.), prepared as a 2.3 mM stock in DMSO and mixed in a 1:1 ratio with 10% (w/v) Pluronic F-127 and diluted in assay buffer, was added to the wells and the cell plates were incubated for 50 min at 37° C. and 5% CO2. Dye was removed by washing with the ELX 405 and the final volume was aspirated to 20 μL. Compound master plates were formatted in a 10 point concentration-response curve (CRC) format (1:3 dilutions) in 100% DMSO with a starting concentration of 10 or 1 mM using a BRAVO liquid handler (Agilent). Test compound CRCs were then transferred to daughter plates (240 nL) using the Echo acoustic plate reformatter (Labcyte, Sunnyvale, Calif.) and then diluted into assay buffer (40 μL) to a 2× stock using a Thermo Fisher Combi (Thermo Fisher Scientific, Waltham, Mass.).
(§3) Calcium flux was measured using the Functional Drug Screening System (FDSS) 6000 or 7000 (Hamamatsu Corporation, Tokyo, Japan) as an increase in the fluorescent static ratio. Compounds were applied to cells (20 μL, 2×) using the automated system of the FDSS at 2 seconds into the protocol and the data were collected at 1 Hz. At 143 s, 10 μL of an EC20 concentration of the muscarinic receptor agonist acetylcholine was added (5×), followed by the addition of 12 μL of an EC80 concentration of acetylcholine at the 268 s time point (5×). Agonist activity was analyzed as a concentration-dependent increase in calcium mobilization upon compound addition. Positive allosteric modulator activity was analyzed as a concentration-dependent increase in the EC20 acetylcholine response. Antagonist activity was analyzed as a concentration-dependent decrease in the EC80 acetylcholine response; for the purposes of the tables herein, an IC50 (inhibitory concentration 50) was calculated as a concentration-dependent decrease of the response elicited by an EC80 concentration of acetylcholine. Concentration-response curves were generated using a four-parameter logistical equation in XLFit curve fitting software (IDBS, Bridgewater, N.J.) for Excel (Microsoft, Redmond, Wash.) or Prism (GraphPad Software, Inc., San Diego, Calif.) or the Dotmatics software platform (Dotmatics, Bishop's Stortford, UK).
(§4) Compounds were synthesized as described above. Activity (IC50 and Emin) was determined in the mAChR M4 cell-based functional assay as described above and the data are shown in Table 2.

Rat M4 = biological target: T2, Rat M4 (Rattus norvegicus, UniProt P08485); experiment: mAChR M4 cell-based functional assay (calcium flux, antagonist mode vs EC80 acetylcholine), rat M4/Gqi5/CHO-K1 cells; details: for remaining activity at 30 µM: CHO-K1, % ACh maximum at 30 μM, rat M4, read-out: Rat M4 Emin (%); for IC50: decrease of response elicited by EC80 acetylcholine, rat M4/Gqi5 CHO-K1 cells
T2 construct: expressed in transfected cells; host or cells: CHO-K1 (ATCC), stably co-expressing chimeric G protein Gqi5
T2 sequence (P08485 1-478): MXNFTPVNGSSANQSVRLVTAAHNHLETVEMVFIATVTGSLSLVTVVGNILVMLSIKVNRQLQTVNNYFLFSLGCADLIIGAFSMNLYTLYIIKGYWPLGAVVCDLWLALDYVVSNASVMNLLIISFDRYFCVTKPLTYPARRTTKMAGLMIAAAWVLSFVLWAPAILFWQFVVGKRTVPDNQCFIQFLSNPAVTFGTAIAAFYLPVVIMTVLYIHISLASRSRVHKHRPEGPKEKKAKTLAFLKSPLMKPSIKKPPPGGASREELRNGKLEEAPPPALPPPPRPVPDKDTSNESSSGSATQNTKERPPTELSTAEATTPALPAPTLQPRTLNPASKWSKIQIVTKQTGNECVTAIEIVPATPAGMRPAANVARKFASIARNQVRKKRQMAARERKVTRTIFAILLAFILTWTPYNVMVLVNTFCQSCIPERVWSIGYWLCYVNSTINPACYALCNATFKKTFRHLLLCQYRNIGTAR
Description: as §1, §2, §3, §4

| SMILES | remaining activity at 30 µM (Human M4) | IC50 (Human M4) | remaining activity at 30 µM (Rat M4) | IC50 (Rat M4) |
| --- | --- | --- | --- | --- |
| CC(=O)Nc1ccc(-c2ccc(N[C@H]3C[C@@H]4CN(C5CCOC(C)(C)C5)C[C@@H]4C3)nn2)cc1 (stereo partly drawn) [compound 20, N-(4-(6-(((3aR,5s,6aS)-2-(2,2-dimethyltetrahydro-2H-pyran-4-yl)octahydrocyclopenta[c]pyrrol-5-yl)amino)pyridazin-3-yl)phenyl)acetamide] | 3% | 18.7 nM | 4% | 129 nM |
| CC1(C)CC(N2C[C@H]3C[C@H](Nc4ccc(-c5ccc6nccn6c5)nn4)C[C@H]3C2)CCO1 (stereo partly drawn) [compound 21, (3aR,5s,6aS)-2-(2,2-dimethyltetrahydro-2H-pyran-4-yl)-N-(6-(imidazo[1,2-a]pyridin-6-yl)pyridazin-3-yl)octahydrocyclopenta[c]pyrrol-5-amine] | 7% | 36.2 nM | 8% | 808 nM |
| O=S(=O)(c1ccccc1)c1ccc(N[C@H]2C[C@@H]3CN(CC4CCOCC4)C[C@@H]3C2)nn1 [compound 23, (3aR,5s,6aS)-N-(6-(phenylsulfonyl)pyridazin-3-yl)-2-((tetrahydro-2H-pyran-4-yl)methyl)octahydrocyclopenta[c]pyrrol-5-amine] | 4% | 65.6 nM | 11% | 1520 nM |
| Cc1cc(CN2C[C@H]3C[C@H](Nc4ccc(S(=O)(=O)c5ccccc5)nn4)C[C@H]3C2)nn1C [compound 24, (3aR,5s,6aS)-2-((1,5-dimethyl-1H-pyrazol-3-yl)methyl)-N-(6-(phenylsulfonyl)pyridazin-3-yl)octahydrocyclopenta[c]pyrrol-5-amine] | 8% | 906 nM | 35% | > 10000 nM |
| O=S(=O)(c1ccccc1)c1ccc(N[C@H]2C[C@@H]3CN(Cc4ccccn4)C[C@@H]3C2)nn1 [compound 25, (3aR,5s,6aS)-N-(6-(phenylsulfonyl)pyridazin-3-yl)-2-(pyridin-2-ylmethyl)octahydrocyclopenta[c]pyrrol-5-amine] | 6% | 436 nM | 26% | > 10000 nM |
| O=S(=O)(c1ccccc1)c1ccc(N[C@H]2C[C@@H]3CN(Cc4ccc5c(c4)OC(F)(F)O5)C[C@@H]3C2)nn1 [compound 26, (3aR,5s,6aS)-2-((2,2-difluorobenzo[d][1,3]dioxol-5-yl)methyl)-N-(6-(phenylsulfonyl)pyridazin-3-yl)octahydrocyclopenta[c]pyrrol-5-amine] | 3% | 1000 nM | 14% | 3000 nM |
| O=S(=O)(c1ccccc1)c1ccc(N[C@H]2C[C@@H]3CN(Cc4ccc5c(c4)OCO5)C[C@@H]3C2)nn1 [compound 27, (3aR,5s,6aS)-2-(benzo[d][1,3]dioxol-5-ylmethyl)-N-(6-(phenylsulfonyl)pyridazin-3-yl)octahydrocyclopenta[c]pyrrol-5-amine] | 2% | 12.8 nM | 4% | 791 nM |

The remaining lines, values ahead:

| remaining activity at 30 µM (Human M4) | IC50 (Human M4) | remaining activity at 30 µM (Rat M4) | IC50 (Rat M4) | SMILES |
| --- | --- | --- | --- | --- |
| 3% | 80.2 nM | 17% | 1400 nM | Fc1ccc(Cl)c(-c2ccc(N[C@H]3C[C@@H]4CN(C5CCCOC5)C[C@@H]4C3)nn2)c1 (stereo partly drawn) [compound 13, (3aR,5s,6aS)-N-(6-(2-chloro-5-fluorophenyl)pyridazin-3-yl)-2-(tetrahydro-2H-pyran-3-yl)octahydrocyclopenta[c]pyrrol-5-amine] |
| 21% | 5030 nM | 51% | > 10000 nM | Fc1ccc(Cl)c(-c2ccc(N[C@H]3C[C@@H]4CN(C5COC5)C[C@@H]4C3)nn2)c1 [compound 14, (3aR,5s,6aS)-N-(6-(2-chloro-5-fluorophenyl)pyridazin-3-yl)-2-(oxetan-3-yl)octahydrocyclopenta[c]pyrrol-5-amine] |
| 7% | 10.2 nM | 5% | 884 nM | Fc1ccc(Cl)c(-c2ccc(N[C@H]3C[C@@H]4CN(C5CCSCC5)C[C@@H]4C3)nn2)c1 [compound 15, (3aR,5s,6aS)-N-(6-(2-chloro-5-fluorophenyl)pyridazin-3-yl)-2-(tetrahydro-2H-thiopyran-4-yl)octahydrocyclopenta[c]pyrrol-5-amine] |
| 4% | 1.9 nM | 4% | 97.3 nM | CC1(C)CC(N2C[C@H]3C[C@H](Nc4ccc(-c5cc(F)ccc5Cl)nn4)C[C@H]3C2)CCO1 (stereo partly drawn) [compound 16, (3aR,5s,6aS)-N-(6-(2-chloro-5-fluorophenyl)pyridazin-3-yl)-2-(2,2-dimethyltetrahydro-2H-pyran-4-yl)octahydrocyclopenta[c]pyrrol-5-amine] |
| 4% | 15 nM | 4% | 513 nM | CC1(C)CC(N2C[C@H]3C[C@H](Nc4ccc(-c5cc(F)ccc5Cl)nn4)C[C@H]3C2)CC(C)(C)O1 [compound 18, (3aR,5s,6aS)-N-(6-(2-chloro-5-fluorophenyl)pyridazin-3-yl)-2-(2,2,6,6-tetramethyltetrahydro-2H-pyran-4-yl)octahydrocyclopenta[c]pyrrol-5-amine] |
| 6% | 4.52 nM | 11% | 6390 nM | Cc1nn(C)cc1-c1ccc(N[C@H]2C[C@@H]3CN(C4CCOC(C)(C)C4)C[C@@H]3C2)nn1 (stereo partly drawn) [compound 22, (3aR,5s,6aS)-N-(6-(1,3-dimethyl-1H-pyrazol-4-yl)pyridazin-3-yl)-2-(2,2-dimethyltetrahydro-2H-pyran-4-yl)octahydrocyclopenta[c]pyrrol-5-amine] |
